Experimental findings from patent US11014941B2, “Pyrrolopyrimidine derivatives useful as inhibitors of influenza virus replication” (priority 2017, dated 2021) are described below.

Bounds are passed on as bounds.

Sequence of Influenza PB2 (P03428 whole entry, looked up): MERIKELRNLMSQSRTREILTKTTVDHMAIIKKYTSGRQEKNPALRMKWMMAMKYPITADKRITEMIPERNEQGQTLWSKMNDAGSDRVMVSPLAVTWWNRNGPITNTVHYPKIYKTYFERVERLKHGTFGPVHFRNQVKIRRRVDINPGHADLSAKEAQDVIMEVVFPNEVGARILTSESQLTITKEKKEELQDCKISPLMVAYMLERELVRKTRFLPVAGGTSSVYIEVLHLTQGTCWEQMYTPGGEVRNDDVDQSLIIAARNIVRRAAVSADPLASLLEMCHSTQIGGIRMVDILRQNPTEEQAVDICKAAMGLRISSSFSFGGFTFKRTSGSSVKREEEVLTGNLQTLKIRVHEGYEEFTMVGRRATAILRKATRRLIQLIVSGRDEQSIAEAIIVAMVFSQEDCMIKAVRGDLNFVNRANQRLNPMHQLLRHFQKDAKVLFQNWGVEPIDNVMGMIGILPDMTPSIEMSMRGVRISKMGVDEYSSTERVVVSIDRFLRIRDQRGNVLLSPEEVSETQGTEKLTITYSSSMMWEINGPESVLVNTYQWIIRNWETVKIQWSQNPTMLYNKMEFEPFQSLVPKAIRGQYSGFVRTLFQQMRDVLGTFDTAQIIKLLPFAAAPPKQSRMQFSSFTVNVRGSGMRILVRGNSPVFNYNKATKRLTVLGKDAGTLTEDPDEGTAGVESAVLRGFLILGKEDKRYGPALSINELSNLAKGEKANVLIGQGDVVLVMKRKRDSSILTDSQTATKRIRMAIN

The assay addresses Influenza PB2 (Influenza A virus, UniProt P03428). Description: biochemical. To be noted: read-out: Influenza PB2 affinity, IC50. The format is binding.
With `O=C(O)[C@@H]1CCCC[C@H]1n1ccc2cnc(-c3c[nH]c4ncc(F)cc34)nc21` (racemic) [Compound B15], the IC50 lay within 1 to 10 µM.
As for `CNC(=O)[C@@H]1CCCC[C@H]1n1cc(F)c2cnc(-c3c[nH]c4ncc(Cl)cc34)nc21` (racemic) [Compound B95], the IC50 was 10 to 100 µM.
In the case of `CCOCCOCCCCC(=O)N[C@H]1CCC[C@@H](n2ccc3cnc(-c4c[nH]c5ncc(F)cc45)nc32)C1` (relative stereo) [Compound B100], the half-maximal inhibitory concentration (IC50) fell in the range of 10 to 100 µM.
For the molecule `O=C(O)[C@@H]1C2CCC(CC2)[C@H]1n1cc(-c2ccncc2F)c2cnc(-c3c[nH]c4ncc(Cl)cc34)nc21` (relative stereo) [Compound B211], the IC50 lay within 1 to 10 µM.
For `O=C(O)[C@@H]1C2CCC(CC2)[C@H]1n1cc(-c2ccncc2Cl)c2cnc(-c3c[nH]c4ncc(Cl)cc34)nc21` (relative stereo) [Compound B212], the IC50 is 1 to 10 µM.
Turning to `O=C(O)[C@@H]1CCCC[C@H]1n1ccc2cnc(-c3c[nH]c4ncc(F)cc34)nc21` (single isomer, unassigned) [Compound B17], the IC50 was under 1 µM.
Then `O=C(O)[C@H]1CCCC1n1ccc2cnc(-c3c[nH]c4ncc(F)cc34)nc21` (single isomer, unassigned) [Compound B21], with 1 to 10 µM; and `O=C(O)[C@H]1CCCC1n1ccc2cnc(-c3c[nH]c4ncc(F)cc34)nc21` (single isomer, unassigned) [Compound B22], with 1 to 10 µM; and `O=C(O)[C@@H]1CCCC[C@H]1n1ccc2cnc(-c3c[nH]c4ncc(F)cc34)nc21` (single isomer, unassigned) [Compound B24], with under 1 µM.
Then `CNC(=O)[C@@H]1CCCC[C@H]1n1cc(F)c2cnc(-c3c[nH]c4ncc(Cl)cc34)nc21` (single isomer, unassigned) [Compound B93], with 1 to 10 µM; and `O=C(O)[C@H]1C2CCC(CC2)C1n1cc(Cl)c2cnc(-c3c[nH]c4ncc(F)cc34)nc21` (single isomer, unassigned) [Compound B132], with under 1 µM; and `O=C(O)[C@H]1C2CCC(CC2)C1n1cc(Cl)c2cnc(-c3c[nH]c4ncc(F)cc34)nc21` (single isomer, unassigned) [Compound B133], with under 1 µM.
Then `O=C(O)[C@@H]1C2CCC(CC2)C1n1cc(Cl)c2cnc(-c3c[nH]c4ncc(Cl)cc34)nc21` (single isomer, unassigned) [Compound B136], with 1 to 10 µM; and `O=C(O)[C@@H]1C2CCC(CC2)C1n1cc(Cl)c2cnc(-c3c[nH]c4ncc(Cl)cc34)nc21` (single isomer, unassigned) [Compound B137], with under 1 µM; and `O=C(O)[C@@H]1C2CCC(CC2)C1n1cc(F)c2cnc(-c3c[nH]c4ncc(Cl)cc34)nc21` (single isomer, unassigned) [Compound B143], with under 1 µM.
As for `O=C(O)[C@@H]1C2CCC(CC2)C1n1cc(F)c2cnc(-c3c[nH]c4ncc(Cl)cc34)nc21` (single isomer, unassigned) [Compound B144], the IC50 is under 1 µM.
Then `O=C(O)[C@@H]1C2CCC(CC2)C1n1cc(-c2ccncc2)c2cnc(-c3c[nH]c4ncc(Cl)cc34)nc21` (single isomer, unassigned) [Compound B189], with 1 to 10 µM; and `O=C(O)[C@@H]1C2CCC(CC2)C1n1cc(-c2ccncc2)c2cnc(-c3c[nH]c4ncc(Cl)cc34)nc21` (single isomer, unassigned) [Compound B190], with 1 to 10 µM; and `CNC(=O)[C@@H]1C2CCC(CC2)C1n1cc(F)c2cnc(-c3c[nH]c4ncc(Cl)cc34)nc21` (single isomer, unassigned) [Compound B194], with 1 to 10 µM.
Take `CNC(=O)[C@@H]1C2CCC(CC2)C1n1cc(F)c2cnc(-c3c[nH]c4ncc(Cl)cc34)nc21` (single isomer, unassigned) [Compound B195]: the IC50 fell in the range of 10 to 100 µM.
To `CN(C)C(=O)Cn1ccc2c(-c3c[nH]c4ncc(F)cc34)ncnc21` [Compound A1] belongs 10 to 100 µM; to `COC(=O)CCn1ccc2c(-c3c[nH]c4ncc(F)cc34)ncnc21` [Compound A2], 10 to 100 µM; to `O=C(O)Cn1ccc2c(-c3c[nH]c4ncc(F)cc34)ncnc21` [Compound A3], 1 to 10 µM.
Then `CN(C)C(=O)CCn1ccc2c(-c3c[nH]c4ncc(F)cc34)ncnc21` [Compound A4], with 10 to 100 µM.
To `O=C(O)CCn1ccc2c(-c3c[nH]c4ncc(F)cc34)ncnc21` [Compound A5] belongs 10 to 100 µM; to `O=C(O)CNC(=O)Cn1ccc2c(-c3c[nH]c4ncc(F)cc34)ncnc21` [Compound A6], 10 to 100 µM.
Take `C[C@H](NC(=O)Cn1ccc2c(-c3c[nH]c4ncc(F)cc34)ncnc21)C(=O)O` [Compound A7]: the IC50 was 10 to 100 µM.
To `COC(=O)[C@H](Cc1ccccc1)NC(=O)Cn1ccc2c(-c3c[nH]c4ncc(F)cc34)ncnc21` [Compound A8] belongs over 100 µM.
`O=C(O)[C@H]1CCCN1C(=O)Cn1ccc2c(-c3c[nH]c4ncc(F)cc34)ncnc21` [Compound A9]: the IC50 lay within 10 to 100 µM.
As to `COC(=O)[C@H](C)NC(=O)Cn1ccc2c(-c3c[nH]c4ncc(F)cc34)ncnc21` [Compound A10], the IC50 was in the range of 10 to 100 µM.
As to `O=C(Cn1ccc2c(-c3c[nH]c4ncc(F)cc34)ncnc21)N[C@@H](Cc1ccccc1)C(=O)O` [Compound A11], the IC50 was in the range of 10 to 100 µM.
Take `COC(=O)C[C@H](NC(=O)Cn1ccc2c(-c3c[nH]c4ncc(F)cc34)ncnc21)C(=O)OC` [Compound A12]: the IC50 is over 100 µM.
To `COC(=O)[C@H](CO)NC(=O)Cn1ccc2c(-c3c[nH]c4ncc(F)cc34)ncnc21` [Compound A13] belongs over 100 µM; to `O=C(O)C[C@H](NC(=O)Cn1ccc2c(-c3c[nH]c4ncc(F)cc34)ncnc21)C(=O)O` [Compound A14], 1 to 10 µM; to `COC(=O)[C@H]1CCCN1C(=O)Cn1ccc2c(-c3c[nH]c4ncc(F)cc34)ncnc21` [Compound A15], over 100 µM.
`COC(=O)CNC(=O)CCn1ccc2c(-c3c[nH]c4ncc(F)cc34)ncnc21` [Compound A16]: the concentration for half-maximal inhibition (IC50) was over 100 µM.
To `NC(=O)C[C@H](NC(=O)Cn1ccc2c(-c3c[nH]c4ncc(F)cc34)ncnc21)C(=O)O` [Compound A17] belongs 1 to 10 µM; to `COC(=O)[C@@H](Cc1ccccc1)NC(=O)CCn1ccc2c(-c3c[nH]c4ncc(F)cc34)ncnc21` [Compound A18], over 100 µM; to `COC(=O)[C@H](CO)NC(=O)CCn1ccc2c(-c3c[nH]c4ncc(F)cc34)ncnc21` [Compound A19], 10 to 100 µM.
As for `O=C(Cn1ccc2c(-c3c[nH]c4ncc(F)cc34)ncnc21)N[C@@H](CO)C(=O)O` [Compound A20], the IC50 lay in the range of 1 to 10 µM.
On to `CN(C)C(=O)Cn1ccc2cnc(-c3c[nH]c4ncc(F)cc34)nc21` [Compound B1], for which the half-maximal inhibitory concentration (IC50) was in the range of 10 to 100 µM.
To `CN(C)C(=O)CCn1ccc2cnc(-c3c[nH]c4ncc(F)cc34)nc21` [Compound B2] belongs 10 to 100 µM; to `COC(=O)CCn1ccc2cnc(-c3c[nH]c4ncc(F)cc34)nc21` [Compound B3], over 100 µM; to `O=C(O)Cn1ccc2cnc(-c3c[nH]c4ncc(F)cc34)nc21` [Compound B4], 10 to 100 µM.
On to `O=C(O)CCn1ccc2cnc(-c3c[nH]c4ncc(F)cc34)nc21` [Compound B5], for which the IC50 fell in the range of 10 to 100 µM.
On to `CN(C)C(=O)CN1CCc2cnc(-c3c[nH]c4ncc(F)cc34)nc21` [Compound B6], for which the IC50 was in the range of 10 to 100 µM.
To `COC(=O)[C@H](C)NC(=O)Cn1ccc2cnc(-c3c[nH]c4ncc(F)cc34)nc21` [Compound B7] belongs over 100 µM; to `COC(=O)[C@H](Cc1ccccc1)NC(=O)Cn1ccc2cnc(-c3c[nH]c4ncc(F)cc34)nc21` [Compound B8], over 100 µM; to `O=C(O)CN1CCc2cnc(-c3c[nH]c4ncc(F)cc34)nc21` [Compound B9], over 100 µM.
Consider `COC(=O)CNC(=O)Cn1ccc2cnc(-c3c[nH]c4ncc(F)cc34)nc21` [Compound B10], for which the IC50 is over 100 µM.
On to `C[C@H](NC(=O)Cn1ccc2cnc(-c3c[nH]c4ncc(F)cc34)nc21)C(=O)O` [Compound B11], for which the half-inhibitory concentration (IC50) lay within 10 to 100 µM.
Then `CN(C)C(=O)CCN1CCc2cnc(-c3c[nH]c4ncc(F)cc34)nc21` [Compound B12], with 10 to 100 µM; and `O=C(O)CCN1CCc2cnc(-c3c[nH]c4ncc(F)cc34)nc21` [Compound B13], with 10 to 100 µM.
Then `O=C(Cn1ccc2cnc(-c3c[nH]c4ncc(F)cc34)nc21)N[C@@H](Cc1ccccc1)C(=O)O` [Compound B14], with 10 to 100 µM.
Then `O=C(O)[C@H]1CCC[C@@H]1n1ccc2cnc(-c3c[nH]c4ncc(F)cc34)nc21` [Compound B16], with 1 to 10 µM.
As to `O=C(O)/C=C/n1ccc2cnc(-c3c[nH]c4ncc(F)cc34)nc21` [Compound B18], the IC50 lay in the range of 10 to 100 µM.
Turning to `COC(=O)[C@@H]1CCC[C@H]1n1ccc2cnc(-c3c[nH]c4ncc(F)cc34)nc21` [Compound B19], the half-maximal inhibitory concentration (IC50) lay in the range of 1 to 10 µM.
Then `COC(=O)[C@H]1CCCC[C@@H]1n1ccc2cnc(-c3c[nH]c4ncc(F)cc34)nc21` [Compound B20], with 10 to 100 µM; and `COC(=O)/C=C/n1ccc2cnc(-c3c[nH]c4ncc(F)cc34)nc21` [Compound B23], with 10 to 100 µM; and `CCOCCOCCOCCNC(=O)[C@@H]1CCCC[C@H]1n1ccc2cnc(-c3c[nH]c4ncc(F)cc34)nc21` [Compound B25], with 1 to 10 µM.
Then `CCOCCOCCOCCN(C)C(=O)[C@@H]1CCCC[C@H]1n1ccc2cnc(-c3c[nH]c4ncc(F)cc34)nc21` [Compound B26], with 10 to 100 µM.
Turning to `CCOCCOCCOCCNC(=O)N[C@H]1CCC[C@@H](n2ccc3cnc(-c4c[nH]c5ncc(F)cc45)nc32)C1` [Compound B27], the IC50 lay in the range of 10 to 100 µM.
As to `CCOCCOCCOCC(=O)N[C@@H]1CCC[C@H](n2ccc3cnc(-c4c[nH]c5ncc(F)cc45)nc32)C1` [Compound B28], the IC50 is 10 to 100 µM.
Then `CCOCCOCCOCCN(C)C(=O)N[C@H]1CCC[C@@H](n2ccc3cnc(-c4c[nH]c5ncc(F)cc45)nc32)C1` [Compound B29], with 10 to 100 µM.
